Measured values reported in patent US11160788B2, “Caspase-1 inhibition and uses thereof for prevention and treatment of neurological conditions” (priority 2016, dated 2021).
“Also recorded” adds a separate entry of the source.

Columns and labels:
[1] = test system: serum deprived human primary neurons; experiment: Neuritic beading in serum-deprived human primary neurons; format: cell-based
Experimental: FIG. 13: VX-765 protects CNS primary human neurons (HPN) against APP- or serum deprivation-mediated neuritic beading. (a) MTT assay with increasing dose of VX-765. (b) Fluorescent micrographs showing homogeneous distribution of EGFP in normal neurons and neuritic beading in APP-transfected neurons. (c) Percentage beading in APP-transfected or serum-deprived neurons treated 1 h before and continuously with stressor (Pre-treatment) or 48 h after stressor (post-beading treatment) with 25 or 50 μM VX-765 or with 5 μM Z-YVAD-fmk Casp1 peptide inhibitor. […] (d-e) HPN secreted or cellular Aβ42/total Aβ38+40+42 (d) (F(3,4)=12.73, p=0.0163, ANOVA, Dunnett's post-hoc compared to Serum+DMSO, *p<0.05), and (e) levels of secreted II-1β, IFN-γ, TNF-α, and II-6 from untreated (+S), serum deprived (−S), or serum-deprived human neurons treated with 25 or 50 μM VX-765.
EGFP-labeled human primary neurons were either APP^WT transfected or serum deprived. Two treatment strategies were employed to determine VX-765's effects on neuronal degeneration: our Pre-Treatment strategy looked at whether VX-765 could block neuronal degeneration when administered 1 hr prior to APP^WT transfection or serum deprivation, while our Reversal Treatment strategy looked at whether VX-765 could reverse degenerative effects when administered 48 hrs after APP^WT transfection or serum deprivation. Neurons displaying beaded morphology were counted with live imaging and measured as a percentage of the total number of eGFP+ neurons from 24-72 hrs after treatment. The irreversible caspase-1 inhibitor YVAD-fmk was used as positive control in our experiments. Results were obtained from averaging counts for at least 100 eGFP+ neurons per experiment in three independent neuron preparations.

J20 mice [2] = experiment: Synaptophysin immunostaining and synaptic gene mRNA, treated symptomatic J20 mice; format: in vivo, mouse; settings: hippocampus, immunohistochemistry, 50 mg/kg, 8 month old
Description: FIG. 12: VX-765 reverses loss of synaptophysin immunohistological staining in J20 mice. (a) Immunohistological micrographs from pre-treated 5 month old J20 and 8 month old vehicle or VX-765 treated WT or J20 mouse hippocampus and cortex. (b) Quantitative analysis comparing synaptophysin immunostaining density between WT+Vehicle (n=4), J20+Vehicle (n=4), and J20+VX-765 (n=4) in the hippocampus (F(2,9)=7.974, p=0.0102, ANOVA, Tukey's post-hoc, * p<0.05) and cortex.
To assess AD-like pathology, immunohistochemical analyses were performed to detect amyloid deposition (anti-AβF25276)^5,6, microglial (Iba1) activation^7, astrogliosis (GFAP), synaptophysin protein levels on coronal brain sections. Multiplex MSD ELISA was used to assess Aβ levels and 38,40, and 42 subtypes, and II-1β brain levels. RT-PCR was used to assess levels of human APP^Sw/Ind.

J20 mice [3] = experiment: Amyloid immunostaining and ELISA, preventive treatment of J20 mice; format: in vivo, mouse
Description: FIG. 24: Immunostaining of mice brains at 8 months of age (20 week washout) with anti-amyloid beta peptide 1-40 antiserum (a). […] (b) Quantitation of the immunopositive density of amyloid staining at 4, 8, 12, 16, and 20 weeks washout of VX-765 when mice are 4, 5, 6, 7, and 8 months respectively. (c) ELISA analyses of RIPA-soluble and formic-acid soluble hippocampal and cortical tissue protein extracts.
We directly tested whether pre-symptomatic inhibition of inflammation in a mouse genetic model of Alzheimer disease can stem the progression of memory and behavioral deficits, and Alzheimer disease-like pathology. The J20 amyloid precursor protein Swedish/Indiana mutant mouse was treated at 2 months of age for a one month period with 50 mg/Kg Caspase-1 inhibitor VX-765 (FIG. 22a).

J20 mice [4] = experiment: Open field hyperactivity, treatment of symptomatic J20 mice; format: in vivo, mouse; settings: for hyperactivity in open field: Treatment 2; for hyperactivity, distance travelled in open field: 50 mg/kg IP
Description: FIG. 8: VX-765 treatment restores cognitive function in J20 mice. (a) Experimental paradigm. Intraperitoneal vehicle-injected wild type (WT+Vehicle; n=13) and J20 mice (J20+Vehicle: n=9), and VX-765-injected J20 mice (J20+VX-765: n=9) mice were behaviourally assessed at 5 different time-points: baseline before treatment (baseline untreated J20 were grouped together; n=18), after 3 IP injections/wk of VX-765 or vehicle (Treatment 1), after 6 additional injections over 2 weeks (Treatment 2), after 4-week Washout period, and after an additional 3 injections in one week (Treatment 3). Mice were sacrificed at 8 months of age after Treatment 3 (b) NOR Discrimination index (Treatment main effect, F(2,20)=85.8, p<0.0001; Time main effect, F(4,80)=4.188, p=0.0039; Treatment×Time interaction, F(8,80)=[…], two-way repeated-measures ANOVA, Dunnett's post-hoc compared to J20+Vehicle). (c) Distance traveled during Open Field task. Data analyzed by repeated measures two-way ANOVA (Treatment main effect, F(2,19)=11.47, p=0.0005; Treatment×Time interaction, F(8,76)=5.69, p<0.0001, two-way repeated-measures ANOVA, Dunnett's post-hoc compared to J20+Vehicle). (d-i) Barnes maze analysis. Learning acquisition (d,g), probe test primary latency and errors (e,h), and target hole preference (f,i); # of pokes of each hole labelled +1 to +9 to the right or −1 to −9 to the left of the target hole during the probe) after Treatment 2 (d-f) and Washout (g-i). Probe tests were analyzed (Treatment 2 primary latency, F(2,52)=5.879, p=0.0050; Treatment 2 primary errors, F(2,52)=9.998, p=0.0002; Washout primary latency, F(2,22)=4.076, p=0.0312; Washout primary errors, F(2,22)=10.84, p=0.0005, ANOVA, Tukey's post-hoc). * p<0.05, ***p<0.001, ****p<0.0001.
Anxiety and hyperactivity are monitored in an open-field paradigm, episodic memory with the NOR, spatial memory with the Barnes maze, and short or long term working memory with the Y maze before and after treatments. Repeated measures are acceptable for the NOR, Barnes and Y maze^2-4. […]

CCO[C@@H]1OC(=O)C[C@@H]1NC(=O)[C@@H]1CCCN1C(=O)[C@@H](NC(=O)c1ccc(N)c(Cl)c1)C(C)(C)C [VX-765, (S)-1-((S)-2-{[1-(4-amino-3-chloro-phenyl)-methanoyl]-amino}-3,3-dimethyl-butanoyl)-pyrrolidine-2-carboxylic acid ((2R,3S)-2-ethoxy-5-oxo-tetrahydro-furan-3-yl)-amide]
neuritic beading ([1]; pre-treatment 1 h before serum deprivation): particularly effective in reducing neuritic beading at 72 hrs; also recorded: protected against, albeit less strongly
neuritic beading ([1]; reversal treatment 48 hrs after serum deprivation): neither YVAD nor VX-765 were able to reverse neuritic beading
synaptophysin levels (J20 mice [2]): increased synaptophysin levels; also recorded: significantly increased and returned to normal levels
RIPA-soluble Aβ38, Aβ40, Aβ42, total Aβ, Aβ42/total Aβ (J20 mice [3]; ELISA, hippocampal tissue): do not detect major differences
formic acid soluble Aβ measures (J20 mice [3]; cortical): not reduced
amyloid levels in RIPA-soluble protein extracts (J20 mice [3]; cortical tissue): no effect
immunopositive density of amyloid staining (J20 mice [3]; hippocampi and cortex, 16 and 20 week washout): slightly less amyloid
formic acid soluble Aβ42/total Aβ (J20 mice [3]; hippocampi, 20 week washout): lower
RIPA-soluble Aβ42/total Aβ (J20 mice [3]; hippocampus, 20 week washout): slightly decreased
hyperactivity in open field (J20 mice [4]; 10 mg/kg): non-significant improvement at T2 with 25, but not 10
hyperactivity in open field (J20 mice [4]; 25 mg/kg): non-significant improvement
hyperactivity, distance travelled in open field (J20 mice [4]; Treatment 2 (3 weeks of treatment)): attenuated only after 3 weeks of treatment; also recorded: attenuated by VX-765 only after T2
hyperactivity, distance travelled in open field (J20 mice [4]; Treatment 3): significantly reduced after T3
hyperactivity, distance travelled in open field (J20 mice [4]; after washout): reappeared after WO
